Measured values as given in a melting point compilation (Tetko et al.; mined from patent text by program, amines drawn as free bases though some values may be those of a salt).

Row | Compound | melting point [°C]
1 | Brc1cnc(N=C(c2ccccc2)c2ccccc2)s1 | 109
2 | COc1nc(OC)c(C(C)C)c(C(=O)c2cc(C)cc(C(OC)OC)c2)n1 | 86 to 88
3 | CNc1nc(C)c(-c2ccc(Cl)c([N+](=O)[O-])c2)s1 | 220 to 232
4 | O=C(Nc1cccc(C(F)(F)F)c1)Nc1ccc2c(c1)OC(F)(F)O2 | 187 to 191
5 | Cc1cc(C)cc(C(=O)N2CCNC(c3ccc(Cl)c(Cl)c3)C2)c1 (single isomer, unassigned; (+)) | 97 to 100
6 | CC(=O)OC1CC(C)(C)N(OC(=O)C23CC4CC(CC(C4)C2)C3)C(C)(C)C1 | 132 to 134
7 | FC(F)(F)c1ccc(-c2cnn(-c3cccnc3)c2)cn1 | 203 to 204
8 | C[C@H](NC(=O)COCCNC(=O)C12CC3CC(CC(C3)C1)C2)C(=O)N[C@H](CCC(=O)OCc1ccccc1)C(N)=O | 57 to 64
9 | CC(C)Cn1c(CNC(=O)OC(C)(C)C)c(OCCCC(F)(F)F)c2cc(O)ccc2c1=O | 173 to 174
10 | CC[C@H]1C(=O)C[C@@H]2C[C@H]1OO[C@@]2(/C=C/C(=O)c1ccc(Cl)cc1)CC | 127
11 | Cc1ccc(N(C)S(=O)(=O)c2cccs2)c2[nH]c(-c3ncc(CO)s3)cc12 | 184 to 185
12 | NNc1nncc(-c2ccccc2)n1 | 144 to 146
13 | c1ccc2c(N3CCNCC3)nsc2c1 | 88 to 90
14 | O=c1oc2ccccc2c2ccc(O)c(O)c12 | 185 to 187
15 | COc1ccc(N(C(=O)CN2C(=O)C(Cc3n[nH]c4c3CCCC4)C(=O)N(c3ccccc3)c3ccccc32)C(C)C)cc1 (configuration not stated) | 170 to 173
16 | Cc1noc(C)c1-c1ccc(OC2SCC(O)C(O)C2O)cc1 (configuration not stated) | 175 to 179
17 | Nc1cc(-c2cc(Cl)cc(Cl)c2)cc2nc(-c3ccco3)nn12 | 257 to 260
18 | CC(C)(C)CNc1nc(Cl)cc(N2CCCC2)n1 | 147 to 150
19 | CN(C)C1(c2ccccc2)CCC(CNC(=O)N2CC=C(c3c[nH]c4ccc(Cl)cc34)CC2)CC1 (configuration not stated) | 183 to 185
20 | CCCOc1ccc2c(c1)NC(=O)CO2 | 102 to 104
21 | Oc1cnc2cccc(Cl)c2n1 | > 250
22 | O=[N+]([O-])c1ccc(OC23CC4CC(CC(C4)C2)C3)cc1 | 132 to 134
23 | CC(C)(C)C(NC(=O)OCc1ccccc1)C(=O)O (configuration not stated) | 96 to 99
24 | C=C1C[C@@H]2[C@H](CC[C@]3(C)C(=O)CC[C@@H]23)[C@@]2(C)CCC(=O)C(OC)=C12 | 196 to 198
25 | Cc1c(C2=NCCS2)[nH]c2c(NS(=O)(=O)c3cccs3)cccc12 | 163 to 164

Row | Compound | melting point [°C]
26 | COC(=O)c1ccc(SC)nc1OC | 71 to 75
27 | O=C(O)CNC1=Nc2ccccc2C(c2ccccc2)=NC1NC(=O)Nc1ccc(Cl)cc1 (configuration not stated) | 186
28 | NS(=O)(=O)c1ccc(-c2ccccc2-c2ccc(Cl)cc2)cc1 | 206 to 207
29 | Cc1cc2cc(O)c(Cl)c(Cl)c2s1 | 93 to 95
30 | CC(C)c1cc(C(=O)Nc2ccc(C(=O)O)c(O)c2)sc1C(C)C | 129 to 130
31 | O=C(O)Cc1ccc(-c2ccc(F)cc2F)c(Cl)c1 | 114 to 116
32 | O=C1Nc2ccc(Br)cc2C12CCNCC2 | 256 to 258
33 | CSCc1cnc2ccccc2c1O | 196 to 197
34 | COc1ccc2c(c1)C(Cl)c1ccccc1CO2 (configuration not stated) | 133 to 134
35 | CC(NC(=O)C1(Cl)C(C)(C)C1(Cl)Cl)c1ccc(Cl)cc1 (configuration not stated) | 138 to 139
36 | COc1ccc(-c2ccccc2)c2sc(-c3ncc[nH]3)nc12 | 205 to 206
37 | CC1(C)[C@H](C=C(Cl)Cl)[C@@H]1C(=O)OCc1cccc(-c2ccc(Br)o2)c1 (relative stereo) | 76.5 to 77
38 | O=C(NCc1ccccc1)Nc1ccc(CN2C(=O)[C@H]3CCC[C@H]3N(C(=O)CN3C(=O)c4ccccc4C3=O)c3ccccc32)cc1 (relative stereo) | 169 to 171
39 | C=CCCCn1nnc(-c2ccc3[nH]c(CCCC)nc(=O)c3c2)n1 | 130
40 | CC(=O)c1cc2c(Br)ccc(OC(C)c3ccccc3)c2o1 (configuration not stated) | 129 to 132
41 | Oc1ccc(Oc2cccc(-c3nnc(Nc4ccc(Cl)c(Cl)c4)s3)c2)cc1 | 224 to 226
42 | Cc1ncc2cc(-c3c(Cl)cccc3Br)c(N)nc2n1 | 272 to 274
43 | COC(=O)[C@@H](CC(C)C)NC(=O)C[C@H]1O[C@H](c2cccc(OC)c2OC)c2cc(Cl)ccc2N(CC(CO)(OC)OC)C1=O | 110 to 111
44 | Cc1cc2c(cc1-c1cc(C=C3SC(=O)NC3=O)ccc1N(C)C)N(C(C)C)C(=O)CC2(C)C | 274 to 276
45 | CC1CN(C2=NC(=O)C(=Cc3cccc(-c4cc(F)c(O)c(C56CC7CC(CC(C7)C5)C6)c4)c3)S2)CC(C)O1 (configuration not stated) | 262 to 264
46 | O=C(O)C1(c2ccsc2)CC1 | 132 to 133
47 | COc1cc(-c2cnc3[nH]cc(C(=O)C45CC6CC(CC(C6)C4)C5)c3n2)cc(OC)c1OC | 267 to 268
48 | CNC(=O)n1cc(Br)cnc1=O | 236 to 238
49 | CCCC(Cn1ncnc1S)c1ccc(Cl)cc1Cl (configuration not stated) | 103
50 | Cc1ccc2[nH]cc(C3C(=O)N(C)C(=O)C3c3cn(C)c4ccc(C)cc34)c2c1 (configuration not stated) | 103 to 105

Other lines, results leading:

Row | melting point [°C] | Compound
51 | 218 to 220 | NS(=O)(=O)N1CCN(c2ccc(Cl)cc2)CC1
52 | 124 | CC1(C)CCC(C)(C)c2cc(C(O)COc3ccc(C(=O)NN4CCCCC4)c(O)c3)ccc21 (configuration not stated)
53 | 92 to 93 | CO[C@@H]1c2ccn3c(C)c(C)nc3c2N[C@H](c2ccccc2)[C@H]1OC(=O)c1ccccc1
54 | 159 | Cc1ccc(O)c(Cn2c(NC3CCNC(CCN4CCOCC4)C3)nc3ccc(CCc4ccccc4)cc32)n1 (configuration not stated)
55 | 78 to 80 | O=C1c2ccccc2C(=O)N1CCCOc1cccc(CO)c1
56 | 104 to 106 | N#Cc1ccc(Cc2ccc(OCC3CCCCC3)cc2)cc1
57 | 89 to 91 | CC(=O)c1ccc(-c2ccc(Br)cc2)c(F)c1
58 | 172 to 174 | CNC(=O)c1ccccc1Nc1nc(Nc2ccc3c(c2)N(C)CCN(CCOC)C3)ncc1Cl
59 | 156 to 157 | COc1c(-c2nnc(Cc3ccc(F)cc3)o2)n(C)c2ccccc2c1=O
60 | 263 to 267 | CCC(=O)Nc1nc(N2CCC(c3c[nH]c4ccc(NC(C)=O)cc34)CC2)cs1
61 | 238 to 242 | CN1CCN(c2ccnc3c(NC(=O)c4c(Cl)cccc4Cl)cccc23)C1=O
62 | 185 to 195 | COc1cc(N2CCC(N3CCN(C)CC3)CC2)ccc1-c1nc2c(N[C@H]3[C@@H](C(N)=O)[C@@H]4C=C[C@H]3C4)c(Br)cnc2[nH]1
63 | 151 to 152 | CCOC(=NC(=O)c1cc(Cl)nc(Cl)c1)N1Cc2ccccc2-c2ccccc2C1
64 | 106 to 108 | CCOC(=O)c1ccc(OCCCN2C(=O)c3ccccc3C2=O)cc1
65 | 150 to 152 | COC(=O)COc1ccc(C(=O)CN2CCN(c3ccncc3)CC2)cc1
66 | 179 to 180 | O=C(OCc1ccccc1)N1CC[C@@H](Oc2ccc([N+](=O)[O-])cc2)[C@H](O)C1 (relative stereo)
67 | 149 to 150 | O=C(CCN1CCOCC1)Nc1cc(-c2nnc(SCc3cccc(F)c3)o2)ccn1
68 | 242 to 243 | COc1ccc(SSc2ccc(OC)cc2C(=O)Nc2ccc(S(N)(=O)=O)cc2)c(C(=O)Nc2ccc(S(N)(=O)=O)cc2)c1
69 | 180 to 182 | O=C(O)CCC(=NOCc1ccc(OCc2cn3ccccc3n2)cc1)c1ccccc1
70 | 210 | Cc1cccc(NC(=O)NCC(=O)N(CC(=O)Nc2ccc3c(c2)CCC3)c2ccccc2)c1
71 | 170 to 172 | Cc1noc2c(Oc3ncccc3C(=O)NCC3CCC(C(C)(C)O)CC3)cccc12 (configuration not stated)

Row | melting point [°C] | Compound
72 | 126 to 131 | COc1ccc([C@H]2CCc3ccccc3[C@@H]2C#N)cc1 (racemic)
73 | 142 to 144 | CC(C)(C)OC(=O)Nc1ccc(C#Cc2ccccn2)cc1[N+](=O)[O-]
74 | 169 to 171 | Cn1c(COc2ccc(CC3SC(=O)NC3=O)cc2)nc2ccc(Oc3cccc(NC(=O)Nc4ccc(F)cc4)c3)cc21 (configuration not stated)
75 | 116 to 118 | COc1ccccc1N1CCN(CC(O)COc2ccccc2C=C=O)CC1 (configuration not stated)
76 | 156 to 158 | CCOCn1cc(F)c(=O)n(C(=O)c2cccc(C(=O)Oc3nc(OC(=O)c4ccc(Cl)cc4)ccc3C#N)c2)c1=O
77 | 123 to 125 | COc1ccc(COc2cccnc2NC(=S)Nc2ccccc2)cc1
78 | 152 to 155 | N=C(NC=Cc1ccc([N+](=O)[O-])cc1)c1cccc([N+](=O)[O-])c1
79 | 109 to 111 | Cc1nc(N2CCN(Cc3c(C)noc3-c3ccccc3)C2=O)sc1C(=O)NCc1cccnc1
80 | 185 to 189 | CC(C)(SCc1ccccn1)C(NS(=O)(=O)c1ccc(Oc2ccc(-c3ccoc3)cc2)cc1)C(=O)O (configuration not stated)
81 | 222 to 230 | O=C(O)COc1ccc2cc(-c3csc(-c4ccccc4)n3)ccc2c1Br
82 | 130 to 134 | COc1ccc2oc(C(=O)c3cccnc3F)cc2c1
83 | 143 to 147 | CCc1nc2c(cnn2CC)c(NC2CCOCC2)c1CNC(=O)c1cccc(C(=O)NCc2ccc(OC)c(-c3cccc(CN4CCCNCC4)c3)c2)c1
84 | 84 to 86 | CC(C)(C)OC(=O)NC1CCN(C(=O)OCCC2(C(=O)NCC(F)(F)F)c3ccccc3-c3ccccc32)CC1
85 | 188 to 190 | O=C(O)COc1ccc(CCc2ccc(-c3ccc(C(F)(F)F)cc3)cc2)c2c1CCC2
86 | 185 to 188 | CC12CCC(OC(=O)c3ccc([N+](=O)[O-])cc3)CC1=CCC1C2CCC2(C)C(=NO)CCC12 (configuration not stated)
87 | 129 to 130 | CCOc1nn(Cc2ccc(OCc3nc(-c4ccco4)oc3C)cc2)cc1CCC(=O)O
88 | 140 to 141 | COC(=O)c1sc2cncc(Oc3ccc(Cl)cc3)c2c1C
89 | 188 to 190 | COc1c(N2CCC(CN)(CF)C2)c(F)cc2c(=O)c(C(=O)O)cn(C3CC3)c12 (configuration not stated)
90 | 59 to 61 | CC(=O)N=NCc1ccc(OCCCCCOc2ccc(C(=O)N(C(C)C)C(C)C)c(Cl)c2)cc1
91 | 111 to 113 | CCCc1c(-c2ccncc2)[nH]c(-c2ccncc2)c1C(C)=O
92 | 150 to 152 | CC(C)C12COc3cc(Cl)ccc3C1=NN(C(=O)Nc1ccc(C(F)(F)F)cc1)C2 (configuration not stated)
